A word on the IC50: it is the concentration that gives 50% inhibition.

This is an account of results in article PMC6052416, “Selective inhibition of carbonic anhydrase-IX by sulphonamide derivatives induces pH and reactive oxygen species-mediated apoptosis in cervical cancer HeLa cells” (Journal of Enzyme Inhibition and Medicinal Chemistry, 2018).

SMILES strings stand for the structures. Read-outs that look alike come from different tables or passages of the source.

Assay [1] relates to HeLa cells. As to the kind of experiment: Annexin-V FITC/PI apoptosis by flow cytometry. Particulars: Annexin-V FITC. Type of assay: cell-based, human. On the procedure: The apoptotic effect of the substances was explored with the commercial FITC Annexin-V Apoptosis Detection Kit I (BD Biosciences, New Jersey, USA) according to the manufacturer’s protocol. The cells were planted in 6-well plates (5 × 10^5 cells/well), and following 24-h incubation, sulphonamide derivative compounds at concentrations of 10–25–50 µM were administered, followed by incubation for 24 h. The cells were raised by trypsin handling and transferred into new tubes within 1X binding buffer, as 1 × 10^6 in each tube, which were incubated for 15 min at room temperature. 5 µL of fluorochrome-conjugated Annexin-V and 5 µL of propidium iodide dyes were then added. 100 µL 1X binding buffer was added to the cells, and they were then centrifuged at 1200 rpm, for 5 min. Finally, the cells were analysed in flow cytometry (BD Via, New Jersey, USA).

Assay [2] deals with PNT-1A (normal prostate cells). As to the kind of experiment: WST-1 cytotoxicity, PNT-1A. Type of assay: cell-based. Particulars: normal cell. On the procedure:
Cancer and normal cell lines were purchased from ATCC and stored in liquid nitrogen. HT-29 (colon adenoma cancer), HeLa (cervix adenoma cancer cell), MDA-MB-231 (breast adenoma cancer cell), HEK-293 (embryonic kidney epithelial cell) and PNT-1A (normal prostate cells) cell lines were incubated in DMEM: F-12 and RPMI-1640, including 10% foetal bovine serum (FBS), 100 µg/mL streptomycin/100 IU/mL penicillin, at 37 °C in an incubator containing 5% CO2, 95% air in a humid atmosphere.
The cytotoxic effects of the substances were evaluated with WST-1 kits (Roche, Germany) in accordance with the manufacturer’s protocols. The cells were planted in 96-well plates (10^4 cells in each well). After incubation for 24 h, the media were discarded and the substances and 5-Fu as the control drug, at doses of 0, 2.5, 5, 10, 25, 50, 100 and 200 µM, were incubated for 24, 48 and 72 h. WST-1 reactive of 10 µL was added to all wells. Following 4-h incubation, the measurements were taken on a plate reader (Spectramax M5) at wavelengths of 450 and 630 nm. Graphs were then created and the IC50 value of each substance was calculated.
(Tetrazolium dyes change colour on reduction, which living cells bring about.)

In assay [3] the test system is HeLa cells. Description: Cell cycle analysis by flow cytometry. Format: cell-based, human. Particulars: 24 h. On the procedure: Cell cycle analysis was performed using BD Cycletest™ Plus DNA Reagent kit (BD Biosciences). According to the kit protocol, 1 × 10^6 cells were planted in 6-well plates, and following 24 h, the cells were incubated for 24 h, with sulphonamide derivative compounds at concentrations of 10–25–50 µM. The cells were raised with trypsin handling and centrifuged at 1500 rpm for 5 min. A suspension was formed with 1X binding buffer, and respectively, 250 µL solution A was added and incubated in a light-free environment for 10 min; 200 µL solution B was added and incubated in a light-free environment for 10 min; and 200 µL solution C was added and incubated in at +4° C in a protected-light environment for 10 min. All analyses were performed by flow cytometry (BD Via, New Jersey, USA).
In general terms: Flow cytometry measures light scatter and fluorescence of single cells or particles in a stream.

As for `NS(=O)(=O)c1ccc(CCN=Cc2cc(Br)ccc2O)cc1` [Compound 1], the “dose from which an apoptotic effect was shown” value in the assay with HeLa cells [1] is listed as at least 25 µM. Also, the IC50 in assay [2] (WST-1, 48 h, read-out: IC50 PNT-1A 48 h) amounted to 86.2 ± 12.1 µM. In addition, the IC50 in assay [2] (WST-1, 72 h, read-out: IC50 PNT-1A 72 h) is 197 ± 11.2 µM. In the assay on HeLa cells [3] (50μM), this molecule gave an S of 20.1% and a Sub-G1 of 10.8%. Also, in the assay with HeLa cells [3], the “dose from which the cell division effect was seen” value is on record as at least 25 µM.
